Experimental data published in US10144706B2 (BRISTOL-MYERS SQUIBB COMPANY, priority 2016, dated 2018).

molecular target: T1, PD-1/PD-L1 interaction (PD-1-Ig / PD-L1-His) (Homo sapiens, UniProt Q9NZQ7); assay: PD-1/PD-L1 Homogenous Time-Resolved Fluorescence (HTRF) binding assay; details: IC50 range class; PD-L1-His 10 nM, PD-1-Ig 20 nM; read-out: Range or IC50
T1 construct: hPDL1(18-239)-TVMV-His; TVMV protease site linker (C); made in house; host or cells: HEK293T
How it was run: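 HTRF detection used 1 nM europium-cryptate anti-Ig and 20 nM APC anti-His. Compounds first saw 10 nM PD-L1-His for 15 min, and 20 nM PD-1-Ig was then added for another 15 min. Buffer was dPBS plus 0.1% BSA and 0.05% Tween-20. All concentrations are final.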

T1 sequence (Q9NZQ7 with tags, fused parts or gaps): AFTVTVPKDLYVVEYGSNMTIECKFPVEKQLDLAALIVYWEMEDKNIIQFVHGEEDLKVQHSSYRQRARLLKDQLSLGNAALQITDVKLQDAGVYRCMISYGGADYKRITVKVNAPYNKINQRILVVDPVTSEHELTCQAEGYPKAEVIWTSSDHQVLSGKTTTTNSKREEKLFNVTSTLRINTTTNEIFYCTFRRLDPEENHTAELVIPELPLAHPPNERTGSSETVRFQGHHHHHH

Cc1c(COc2cc(OCc3cncc(C#N)c3)c(CNC(Cc3ccccc3)C(=O)O)cc2Cl)cccc1-c1cccc(COc2cc(OCc3cncc(C#N)c3)c(CNC(Cc3ccccc3)C(=O)O)cc2Cl)c1C (stereo not shown) [Example 40480] and Cc1c(COc2cc(OCc3cncc(C#N)c3)c(CO)cc2Cl)cccc1-c1cccc(COc2cc(OCc3cncc(C#N)c3)c(CN[C@@H](CCO)C(=O)O)cc2Cl)c1C [Example 50360] fall in the same range of IC50: 0.04 to 20 nM for the first, 0.04 to 20 nM for the second.

Compared with Cc1c(OCCCN2CCCCC2)cccc1-c1cccc(OCCCN2CC[C@@H](O)C2)c1C [Example 2105, (R)-1-(3-((2,2′-dimethyl-3′-(3-(piperidin-1-yl)propoxy)-[1,1′-biphenyl]-3-yl)oxy)propyl)pyrrolidin-3-ol], Cc1c(OCCCN2CCC[C@@H](O)C2)cccc1-c1cccc(OCCCN2CC[C@@H](O)C2)c1C [Example 2114, (R)-1-(3-((3′-(3-((R)-3-hydroxypyrrolidin-1-yl)propoxy)-2,2′-dimethyl-[1,1′-biphenyl]-3-yl)oxy)propyl)piperidin-3-ol] is higher in IC50: 20.1 to 90 nM for the first, 90.1 to 1000 nM for the second. The first is the more potent here.

First: N#Cc1cncc(COc2cc(OCc3cccc(-c4cccc(COc5cc(OCc6cncc(C#N)c6)c(C(=O)NCCCO)cc5Cl)c4Cl)c3Cl)c(Cl)cc2C(=O)O)c1 [Example 90030]
Second: CC(CO)(NCc1cc(Cl)c(OCc2cccc(-c3cccc(COc4cc(OCc5cncc(C#N)c5)c(CO)cc4Cl)c3Cl)c2Cl)cc1OCc1cncc(C#N)c1)C(=O)O (stereo not shown) [Example 50380]
The IC50 of the first is higher: 20.1 to 90 nM for the first, 0.04 to 20 nM for the second. The second is the more potent here.

Compared with Cc1c(OCCCN[C@@](C)(CO)C(=O)O)cccc1-c1cccc(OCCCN2CC[C@@H](O)C2)c1C [Example 2013, (S)-3-hydroxy-2-((3-((3′-(3-((R)-3-hydroxypyrrolidin-1-yl)propoxy)-2,2′-dimethyl-[1,1′-biphenyl]-3-yl)oxy)propyl)amino)-2-methylpropanoic acid], Cc1c(OCCCN(C)CCC(N)=O)cccc1-c1cccc(OCCCN2CC[C@@H](O)C2)c1C [Example 2054, (R)-3-((3-((3′-(3-(3-hydroxypyrrolidin-1-yl)propoxy)-2,2′-dimethyl-[1,1′-biphenyl]-3-yl)oxy)propyl)(methyl)amino)propanamide] is lower in IC50: 90.1 to 1000 nM for the first, 20.1 to 90 nM for the second.

Cc1c(OCCCN2CCN(c3ccccn3)CC2)cccc1-c1cccc(OCCCN2CC[C@@H](O)C2)c1C [Example 2108, (R)-1-(3-((2,2′-dimethyl-3′-(3-(4-(pyridin-2-yl)piperazin-1-yl)propoxy)-[1,1′-biphenyl]-3-yl)oxy)propyl)pyrrolidin-3-ol] and Cc1c(OCCCNCC2CCN(C)CC2)cccc1-c1cccc(OCCCN2CC[C@@H](O)C2)c1C [Example 2044, (R)-1-(3-((2,2′-dimethyl-3′-(3-(((1-methylpiperidin-4-yl)methyl)amino)propoxy)-[1,1′-biphenyl]-3-yl)oxy)propyl)pyrrolidin-3-ol] fall in the same range of IC50: 90.1 to 1000 nM for the first, 90.1 to 1000 nM for the second.

First: Cc1c(NC(=O)NCCC(=O)O)cccc1-c1cccc(OCCCN2CC[C@@H](O)C2)c1C [Example 3014, (R)-3-(3-(3′-(3-(3-hydroxypyrrolidin-1-yl)propoxy)-2,2′-dimethyl-[1,1′-biphenyl]-3-yl)ureido)propanoic acid]
Second: Cc1c(OCCCN2CC[C@@H](O)C2)cccc1-c1cccc(OCCCN2C[C@H](O)C[C@H]2C(=O)O)c1C [Example 2039, (2S,4R)-4-hydroxy-1-(3-((3′-(3-((R)-3-hydroxypyrrolidin-1-yl)propoxy)-2,2′-dimethyl-[1,1′-biphenyl]-3-yl)oxy)propyl)pyrrolidine-2-carboxylic acid]
The IC50 of the first is higher: > 10000 nM for the first, 1000 to 10000 nM for the second. The second is the more potent here.

First: Cc1c(COc2cc(OCc3cncc(C#N)c3)c(CN(C)C(CCO)C(=O)O)cc2Cl)cccc1-c1cccc(COc2cc(OCc3cncc(C#N)c3)c(CN(C)C(CCO)C(=O)O)cc2Cl)c1C (stereo not shown) [Example 40810]
Second: CCCN(Cc1cc(Cl)c(OCc2cccc(-c3cccc(COc4cc(OCc5cncc(C#N)c5)c(CN(CCC)C(CCO)C(=O)O)cc4Cl)c3C)c2C)cc1OCc1cncc(C#N)c1)C(CCO)C(=O)O (stereo not shown) [Example 40820]
The IC50 of the first is higher: 20.1 to 90 nM for the first, 0.04 to 20 nM for the second. The second is the more potent here.

First: Cc1c(COc2cc(OCc3cc(F)cc(F)c3)c(CN[C@@H](CO)C(=O)O)cc2Cl)cccc1-c1cccc(COc2cc(OCc3cc(F)cc(F)c3)c(CN[C@@H](CO)C(=O)O)cc2Cl)c1C [Example 5008, (2S,2′S)-2,2′-((((((2,2′-dimethyl-[1,1′-biphenyl]-3,3′-diyl)bis(methylene))bis(oxy))bis(5-chloro-2-((3,5-difluorobenzyl)oxy)-4,1-phenylene))bis(methylene))bis(azanediyl))bis(3-hydroxypropanoic acid)]
Second: Cc1c(COc2cc(OCc3cc(F)cc(F)c3)c(CNC(CO)CO)cc2Cl)cccc1-c1cccc(COc2cc(OCc3cc(F)cc(F)c3)c(CNC(CO)CO)cc2Cl)c1C [Example 5003, 2,2′-((((((2,2′-dimethyl-[1,1′-biphenyl]-3,3′-diyl)bis(methylene))bis(oxy))bis(5-chloro-2-((3,5-difluorobenzyl)oxy)-4,1-phenylene))bis(methylene))bis(azanediyl))bis(propane-1,3-diol)]
The IC50 of the first is lower: 20.1 to 90 nM for the first, 90.1 to 1000 nM for the second.

Cc1c(COc2cc(OCc3cc(F)cc(F)c3)c(CN(C)[C@@H](CC(C)C)C(=O)O)cc2Cl)cccc1-c1cccc(COc2cc(OCc3cc(F)cc(F)c3)c(CN(C)[C@@H](CC(C)C)C(=O)O)cc2Cl)c1C [Example 5017, (2S,2′S)-2,2′-((((((2,2′-dimethyl-[1,1′-biphenyl]-3,3′-diyl)bis(methylene))bis(oxy))bis(5-chloro-2-((3,5-difluorobenzyl)oxy)-4,1-phenylene))bis(methylene))bis(methylazanediyl))bis(4-methylpentanoic acid)] and Cc1c(COc2cc(OCc3cncc(C#N)c3)c(CN(CC(C)C)C(CCO)C(=O)O)cc2Cl)cccc1-c1cccc(COc2cc(OCc3cncc(C#N)c3)c(CN(CC(C)C)C(CCO)C(=O)O)cc2Cl)c1C (stereo not shown) [Example 40850] fall in the same range of IC50: 0.04 to 20 nM for the first, 0.04 to 20 nM for the second.

First: Cc1c(COc2cc(OCc3cncc(C#N)c3)c(CO)cc2Cl)cccc1-c1cccc(COc2cc(OCc3cncc(C#N)c3)c(CN3CCOC[C@@H]3C(=O)O)cc2Cl)c1C [Example 50100]
Second: Cc1c(COc2cc(OCc3cncc(C#N)c3)c(CN3CCC[C@@H]3C(N)=O)cc2Cl)cccc1-c1cccc(COc2cc(OCc3cncc(C#N)c3)c(CN3CCC[C@@H]3C(N)=O)cc2Cl)c1C [Example 40690]
The IC50 of the first is lower: 0.04 to 20 nM for the first, 90.1 to 1000 nM for the second. The first is the more potent here.

First: COc1cc(OCc2cccc(-c3cccc(COc4cc(OC)c(CN(C)Cc5cncnc5)cc4Cl)c3C)c2C)c(Cl)cc1CN(C)Cc1cncnc1 [Example 5038, 1,1′-((((2,2′-dimethyl-[1,1′-biphenyl]-3,3′-diyl)bis(methylene))bis(oxy))bis(5-chloro-2-methoxy-4,1-phenylene))bis(N-methyl-N-(pyrimidin-5-ylmethyl)methanamine)]
Second: Cc1c(COc2cc(OCc3ccc(-n4cccn4)nc3)c(CN(C)[C@@](C)(CO)C(=O)O)cc2Cl)cccc1-c1cccc(COc2cc(OCc3ccc(-n4cccn4)nc3)c(CN(C)[C@@](C)(CO)C(=O)O)cc2Cl)c1C [Example 5027, (2S,2′S)-2,2′-((((((2,2′-dimethyl-[1,1′-biphenyl]-3,3′-diyl)bis(methylene))bis(oxy))bis(2-((6-(1H-pyrazol-1-yl)pyridin-3-yl)methoxy)-5-chloro-4,1-phenylene))bis(methylene))bis(methylazanediyl))bis(3-hydroxy-2-methylpropanoic acid)]
The IC50 of the first is higher: 90.1 to 1000 nM for the first, 0.04 to 20 nM for the second. The second is the more potent here.

Cc1c(COc2cc(OCc3cncc(C#N)c3)c(CNC[C@H](O)CC(=O)O)cc2Cl)cccc1-c1cccc(COc2cc(OCc3cncc(C#N)c3)c(CNC[C@H](O)CC(=O)O)cc2Cl)c1C [Example 40110] and CC(CO)(CO)NCc1cc(Cl)c(OCc2cccc(-c3cccc(COc4cc(OCc5cncc(C#N)c5)c(CNC(C)(CO)CO)cc4Cl)c3)c2)cc1OCc1cncc(C#N)c1 [Example 40010] fall in the same range of IC50: 0.04 to 20 nM for the first, 0.04 to 20 nM for the second.

First: Cc1c(COc2cc(OCc3ccc(-n4cccn4)nc3)c(CN(C)C(CO)CO)cc2Cl)cccc1-c1cccc(COc2cc(OCc3ccc(-n4cccn4)nc3)c(CN(C)C(CO)CO)cc2Cl)c1C [Example 5028, 2,2′-((((((2,2′-dimethyl-[1,1′-biphenyl]-3,3′-diyl)bis(methylene))bis(oxy))bis(2-((6-(1H-pyrazol-1-yl)pyridin-3-yl)methoxy)-5-chloro-4,1-phenylene))bis(methylene))bis(methylazanediyl))bis(propane-1,3-diol)]
Second: Cc1c(COc2cc(O)c(CN[C@@](C)(CO)C(=O)O)cc2Cl)cccc1-c1cccc(COc2cc(O)c(CN[C@@](C)(CO)C(=O)O)cc2Cl)c1C [Example 40160]
The IC50 of the first is higher: 90.1 to 1000 nM for the first, 0.04 to 20 nM for the second. The second is the more potent here.

With Cc1cc(OCCCN2CC[C@@H](O)C2)ccc1-c1cccc(OCCCN2CC[C@@H](O)C2)c1C [Example 3006, (3R,3′R)-1,1′-(((2,2′-dimethyl-[1,1′-biphenyl]-3,4′-diyl)bis(oxy))bis(propane-3,1-diyl))bis(pyrrolidin-3-ol)] the IC50 was 1000 to 10000 nM.

same assay, conditions: numeric IC50; PD-L1-His 10 nM, PD-1-Ig 20 nM; read-out: Range or IC50

Compound CCC[C@@H](C(=O)O)N(C)Cc1cc(Cl)c(OCc2cccc(-c3cccc(COc4cc(OCc5cc(F)cc(F)c5)c(CN(C)[C@@H](CCC)C(=O)O)cc4Cl)c3C)c2C)cc1OCc1cc(F)cc(F)c1 [Example 5016, (2S,2′S)-2,2′-((((((2,2′-dimethyl-[1,1′-biphenyl]-3,3′-diyl)bis(methylene))bis(oxy))bis(5-chloro-2-((3,5-difluorobenzyl)oxy)-4,1-phenylene))bis(methylene))bis(methylazanediyl))dipentanoic acid] has an IC50 of 31 nM.
